Assay results reported in patent US20110142884A1, “Materials and Methods for Making Improved Micelle Compositions” (The Board of Trustees of the University of Illinois, priority 2002, published 2011).

How the values were obtained:
man = details: infusion in man for 10 hours; cited from earlier work
[1] = tested on: mice with collagen-induced arthritis (CIA); test: Collagen induced arthritis (CIA) in mice; format: in vivo; details: for hind paw thickness (PT) increase: tail vein
Experimental: SSM were prepared as described above in previous examples and by Onyuksel et al. (1999). VIP (1.0 nmol) was incubated with SSM for 2 h at 25° C. Size of VIP-SSM was determined by dynamic light-scattering. The effects of dilution on VIP-SSM were determined by size exclusion chromatography (SEC). Effects of VIP-SSM (1.0 nmol) and VIP in buffer (1.0 nmol and 5.0 nmol) were evaluated in mice with CIA treated on day 22 or 34 post-CIA induction. Clinical arthritis score (CAS) and hind paw thickness (PT) were recorded until day 45 post induction.
VIP, VIP-SSM (each, 0.5, 1.0 & 5.0 nmol), empty micelles, and buffer were injected into the tail vein on day 22 or day 34 post-CIA induction. Clinical arthritis score (CAS) and hind paw thickness (PT) were recorded until day 45 post-CIA induction. Systemic arterial pressure (SAP) was recorded by tail cuff in restrained mice. […] CAS reductions were similar to PT after treatment with α-helix VIP- and aqueous VIP-treated mice.

[2] = tested on: mice with collagen-induced arthritis (CIA); details: repeated intraperitoneal administration, 5.0 nmol, Delgado et al. 2001; cited from earlier work
[3] = tested on: second order arterioles of the hamster cheek pouch microcirculation; test: Hamster cheek pouch microcirculation, arteriolar diameter during suffusion; format: in vivo; details: native VIP alone, suffusion
Experimental: According to this example, the vasorelaxant effects of VIP in a SSM were determined according to the following method. Specifically, adult male golden Syrian hamsters were purchased from Sasco (Omaha, Nebr.). Adult male hamsters with spontaneous hypertension and their normotensive controls were purchased from the Canadian Hybrid Farms (Halls Harbour, NS, Canada). Hypertensive animals have been identified after cross-breeding of hamsters with hereditary cardiomyopathy and normal golden Syrian hamsters. These albino animals have previously been used in our laboratory (Rubinstein et al., Biochem. Biophys. Res. Commun. 183:1117-1123 (1992); Artwohl et al., FASEB J. 10:A629 (1996)). Animals were anesthetized with pentobarbital sodium (6 mg/100 g body weight, i.p.). A tracheotomy was performed to facilitate spontaneous breathing. A femoral vein was cannulated to inject supplemental anesthesia during the experiment (2-4 mg/100 g body weight/h). Body temperature was maintained constant (37-38° C.) and monitored via heating pad and a feed back controller throughout the experiment.
The bioactivity of the VIP in SSM by diffusing it in situ was determined by visualization of the microcirculation of the hamster cheek pouch. The microcirculation of the cheek pouch was visualized locally by a method previously developed in our laboratory (Suzuki et al., Life Sci. 57:1451-1457 (1995); Suzuki et al., Am. J. Physiol. 271:R393-R397 (1996); and Suzuki et al., Am. J. Physiol. 271:H282-H287 (1996)). Briefly, the left cheek pouch was spread over a small plastic baseplate, and an incision was made in the outer skin to expose the cheek pouch membrane. The connective avascular tissue layer was removed, and a plastic chamber was placed over the baseplate and secured in place by suturing the skin around the upper chamber. This forms a triple-layered complex: the baseplate, the exposed cheek pouch membrane, and the upper chamber. After these initial procedures, the hamster is transferred to a heated microscope stage. The chamber was connected to a reservoir containing warmed bicarbonate buffer (37-38° C.) that allowed continuous suffusion of the cheek pouch. The buffer was bubbled continuously with 95% N2-5% CO2 (pH 7.4). […]
The cheek pouch microcirculation was epi-illuminated with a 100-W mercury light source and viewed through a microscope (Nikon, Tokyo, Japan) at a magnification of ×40. […] The inner-wall diameter of second order arterioles ([…]), which modulated vascular resistance in the cheek pouch, (Raud, Acta Physiol. Scand. (Suppl.) 578:1-58 (1989); Suzuki et al., Life Sci. 57:1451-1457 (1995); Suzuki et al., Am. J. Physiol. 271:R393-R397 (1996)) was measured from the video display of the microscope image using a videomicrometer (VIA 100; Boeckeler Instruments, Tucson, Ariz.). […]

## vasoactive intestinal peptide [VIP]
man
  increase of forearm blood flow: 270%
  reduction of total peripheral resistance: 30%
[1]; 0.5 nmol dose
  hind paw thickness (PT) increase: 85.63±6.20%
[1]; 1.0 nmol dose
  hind paw thickness (PT) increase: 78.66±6.44%
[1]; 1.0 nmol, treated on day 22
  progression of CIA (PT and CAS data): 78.09%
[1]; 1.0 nmol, treated on day 34
  progression of CIA (PT and CAS data): 96.55%
[1]; 5.0 nmol dose
  hind paw thickness (PT) increase: 46.69±6.92%
[1]; 5.0 nmol, treated on day 22
  progression of CIA (PT and CAS data): 56.37%
[1]; 5.0 nmol, treated on day 34
  progression of CIA (PT and CAS data): 69.71%
[2]
  effect on CIA: ameliorates CIA
[3]
  effects on the arteriolar diameter: no significant effects
